Experimental data as given in PubChem BioAssay (NCI).
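Compound exposure: 48 hours, 5 concentrations, 96-well plates. GI50 marks 50% less growth. At the TGI there is no net growth.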

Tests used:
Assay in all cases: inhibition of tumour cell growth, NCI panel, 48 h; in the data active = GI50 below about 0.43 µM; inactive = the rest
K-562 leukemia = test system: K-562 leukemia
RXF 393 renal = test system: RXF 393 renal
786-0 renal = test system: 786-0 renal
SF-539 CNS = test system: SF-539 CNS
MDA-N = test system: MDA-N
UO-31 renal = test system: UO-31 renal
ACHN renal = test system: ACHN renal
A549 NSCLC = test system: A549 NSCLC
SK-MEL-28 melanoma = test system: SK-MEL-28 melanoma
HCC-2998 colon = test system: HCC-2998 colon
SNB-75 CNS = test system: SNB-75 CNS
HCT-116 colon = test system: HCT-116 colon
MOLT-4 leukemia = test system: MOLT-4 leukemia
NCI/ADR-RES ovarian = test system: NCI/ADR-RES ovarian
CCRF-CEM leukemia = test system: CCRF-CEM leukemia
UACC-257 melanoma = test system: UACC-257 melanoma
DU-145 prostate = test system: DU-145 prostate
HCT-15 colon = test system: HCT-15 colon
OVCAR-8 ovarian = test system: OVCAR-8 ovarian
HS 578T breast = test system: HS 578T breast
SK-MEL-2 melanoma = test system: SK-MEL-2 melanoma
KM12 colon = test system: KM12 colon
M14 melanoma = test system: M14 melanoma
MCF7 breast = test system: MCF7 breast
HOP-92 NSCLC = test system: HOP-92 NSCLC
OVCAR-4 ovarian = test system: OVCAR-4 ovarian
SF-295 CNS = test system: SF-295 CNS
NCI-H522 lung = test system: NCI-H522 lung
BT-549 breast = test system: BT-549 breast
COLO 205 colon = test system: COLO 205 colon
MDA-MB-435 = test system: MDA-MB-435
SW-620 colon = test system: SW-620 colon
OVCAR-5 ovarian = test system: OVCAR-5 ovarian
NCI-H23 lung = test system: NCI-H23 lung
SK-OV-3 ovarian = test system: SK-OV-3 ovarian
U251 CNS = test system: U251 CNS
NCI-H460 lung = test system: NCI-H460 lung
SK-MEL-5 melanoma = test system: SK-MEL-5 melanoma
SNB-19 CNS = test system: SNB-19 CNS
HL-60(TB) leukemia = test system: HL-60(TB) leukemia
TK-10 renal = test system: TK-10 renal
NCI-H226 lung = test system: NCI-H226 lung
PC-3 prostate = test system: PC-3 prostate
OVCAR-3 ovarian = test system: OVCAR-3 ovarian
MDA-MB-231 breast = test system: MDA-MB-231 breast
HOP-62 NSCLC = test system: HOP-62 NSCLC
IGROV1 ovarian = test system: IGROV1 ovarian
SF-268 CNS = test system: SF-268 CNS
CAKI-1 renal = test system: CAKI-1 renal
A498 renal = test system: A498 renal
SR leukemia = test system: SR leukemia
SN12C renal = test system: SN12C renal
T-47D breast = test system: T-47D breast
LOX IMVI melanoma = test system: LOX IMVI melanoma
HT29 colon = test system: HT29 colon
EKVX NSCLC = test system: EKVX NSCLC
UACC-62 melanoma = test system: UACC-62 melanoma
MALME-3M melanoma = test system: MALME-3M melanoma

O=[N+]([O-])c1ccc(C=Cc2ccccc2)cc1.[C-]#[O+].[C-]#[O+].[C-]#[O+].[Cr]
37.8 µM: TGI (SNB-75 CNS)
89.7 µM: TGI (NCI-H460 lung)
> 100 µM: TGI (K-562 leukemia) | TGI (RXF 393 renal) | TGI (786-0 renal) | TGI (SF-539 CNS) | TGI (MDA-N) | TGI (UO-31 renal) | TGI (ACHN renal) | TGI (A549 NSCLC) | TGI (SK-MEL-28 melanoma) | TGI (HCC-2998 colon) | TGI (HCT-116 colon) | TGI (MOLT-4 leukemia) | TGI (NCI/ADR-RES ovarian) | TGI (CCRF-CEM leukemia) | TGI (UACC-257 melanoma) | TGI (DU-145 prostate) | TGI (HCT-15 colon) | TGI (OVCAR-8 ovarian) | TGI (HS 578T breast) | TGI (SK-MEL-2 melanoma) | TGI (KM12 colon) | TGI (M14 melanoma) | TGI (MCF7 breast) | TGI (HOP-92 NSCLC) | TGI (OVCAR-4 ovarian) | TGI (SF-295 CNS) | TGI (NCI-H522 lung) | TGI (BT-549 breast) | TGI (COLO 205 colon) | TGI (MDA-MB-435) | TGI (SW-620 colon) | TGI (OVCAR-5 ovarian) | TGI (NCI-H23 lung) | TGI (SK-OV-3 ovarian) | TGI (U251 CNS) | TGI (SNB-19 CNS) | TGI (HL-60(TB) leukemia) | TGI (TK-10 renal) | TGI (NCI-H226 lung) | TGI (PC-3 prostate) | TGI (OVCAR-3 ovarian) | TGI (MDA-MB-231 breast) | TGI (HOP-62 NSCLC) | TGI (IGROV1 ovarian) | TGI (SF-268 CNS) | TGI (CAKI-1 renal) | TGI (A498 renal) | TGI (SR leukemia) | TGI (SN12C renal) | TGI (T-47D breast) | TGI (LOX IMVI melanoma) | TGI (HT29 colon) | TGI (MALME-3M melanoma)
46.9 µM: TGI (UACC-62 melanoma)
inactive: GI50 (K-562 leukemia) 8.61 µM | GI50 (RXF 393 renal) 11.8 µM | GI50 (786-0 renal) 3.41 µM | GI50 (SF-539 CNS) > 100 µM | GI50 (MDA-N) 7.25 µM | GI50 (UO-31 renal) 6.3 µM | GI50 (ACHN renal) 18.5 µM | GI50 (A549 NSCLC) 8.69 µM | GI50 (SK-MEL-28 melanoma) > 100 µM | GI50 (HCC-2998 colon) > 100 µM | GI50 (SNB-75 CNS) 4.46 µM | GI50 (HCT-116 colon) 14.8 µM | GI50 (MOLT-4 leukemia) 5.13 µM | GI50 (NCI/ADR-RES ovarian) 13.4 µM | GI50 (CCRF-CEM leukemia) 2.72 µM | GI50 (UACC-257 melanoma) 44.4 µM | GI50 (DU-145 prostate) 24.3 µM | GI50 (HCT-15 colon) 43.4 µM | GI50 (OVCAR-8 ovarian) 9.77 µM | GI50 (HS 578T breast) 62.9 µM | GI50 (SK-MEL-2 melanoma) 57.7 µM | GI50 (KM12 colon) 13.7 µM | GI50 (M14 melanoma) 7.58 µM | GI50 (MCF7 breast) 5.63 µM | GI50 (HOP-92 NSCLC) 4.94 µM | GI50 (OVCAR-4 ovarian) 8.93 µM | GI50 (SF-295 CNS) 42.1 µM | GI50 (NCI-H522 lung) 3.85 µM | GI50 (BT-549 breast) 24.1 µM | GI50 (COLO 205 colon) 23.9 µM | GI50 (MDA-MB-435) 4.81 µM | GI50 (SW-620 colon) 79.5 µM | GI50 (OVCAR-5 ovarian) > 100 µM | GI50 (NCI-H23 lung) 20.9 µM | GI50 (SK-OV-3 ovarian) 22.9 µM | GI50 (U251 CNS) 36.7 µM | GI50 (NCI-H460 lung) 3.37 µM | GI50 (SK-MEL-5 melanoma) 4.68 µM | GI50 (SNB-19 CNS) > 100 µM | GI50 (HL-60(TB) leukemia) 5.2 µM | GI50 (TK-10 renal) 12 µM | GI50 (NCI-H226 lung) 27.8 µM | GI50 (PC-3 prostate) 43.3 µM | GI50 (OVCAR-3 ovarian) 21.2 µM | GI50 (MDA-MB-231 breast) 46.9 µM | GI50 (HOP-62 NSCLC) > 100 µM | GI50 (IGROV1 ovarian) 6.78 µM | GI50 (SF-268 CNS) 32 µM | GI50 (CAKI-1 renal) 11.9 µM | GI50 (A498 renal) 7.53 µM | GI50 (SR leukemia) 2.49 µM | GI50 (SN12C renal) 10.1 µM | GI50 (T-47D breast) 4.19 µM | GI50 (LOX IMVI melanoma) 31.3 µM | GI50 (HT29 colon) 29.5 µM | GI50 (EKVX NSCLC) 2.93 µM | GI50 (UACC-62 melanoma) 3.01 µM | GI50 (MALME-3M melanoma) > 100 µM
29.2 µM: TGI (SK-MEL-5 melanoma)
30 µM: TGI (EKVX NSCLC)
